For series [1], the system named is E. coli. In words: In vivo study of residual antimicrobial efficacy on finger taps (Example 7). As to conditions: finger taps inoculated with E. coli 30 min (controls) or 30 min, 1 hr, 2 hrs (test article) post application. How it is done:
• 1) Wash hands with nonmedicated soap to remove surface dirt and oil, dried, and finally decontaminate with 70% isopropyl alcohol. Allow to air dry. • 2) Apply test article (Sanitizer A containing 5% CAGE) and controls (70% Alcohol and DI Water or 0.9% Sterile Saline Solution) on each finger tap to cover it completely. Let it dry. • 3) Inoculate the finger taps #1-3 with 10 μL of high-concentrated suspension of E. coli at 30 min of post-application. • 4) Wait for 60 sec (contact time) • 5) Tap the finger on the TSA agar plate and transfer plates #1-3 into the incubator set at 37° C. • 6) Apply 10 μL of inoculum on Finger #4 at 1 hr. of post application. • 7) Wait for 60 sec and tap the finger on the TSA agar plate. Transfer plate into the incubator set at 37° C. • 8) Apply 10 μL of inoculum on Finger #5 at 2 hrs of post application. • 9) Wait for 60 sec and tap the finger on the TSA agar plate. Transfer plate into the incubator set at 37° C. • 10) Observe bacterial growth after 24 hrs in incubator.

For series [2], the system named is human Coronavirus strain 229E (hCoV229E) (ATCC #VR-740). The following applies: for TCID10 (log10): 5% w/w in purified water, virus control 6.50; for CPE (cytopathic/cytotoxic effect), four replicate wells: 5% w/w. For orientation: Damage to the host cells serves as the signal in cytopathic effect assays.
For series [3] the following is noted: in vivo. How it is done:
Distilled water was used as a negative control. The patches were removed by the subjects after 24 h and a new one was applied by the site staff at the same exact site at the next visit. The subjects reported to the site for a total of 9 visits, 3 each week. During each visit the application area was observed by the study investigator and a new patch was applied.
This cosmetic study was approved by an IRB and conducted by AMA Laboratories Inc. in New York. […] The application area was occluded with hypoallergenic tape. The subjects were required to keep the tape for 24 h. At each visit, the application site was evaluated for skin irritation on a 5-point scale (0-4). […] The subjects were then evaluated for any skin reactions after 24 and 48 h.

Like-named read-outs stand apart in the source and are kept apart here.

For `CCO` [70% Ethanol, Ethanol], in series [1], the “microbial growth after 24 hrs at 37° C.” value is recorded as “Microbial growth was observed”.

As for choline geranate [CG-101], the “TCID10 (log10)” value in series [2] (5 minutes exposure) and in series [2] (10 minutes exposure) was at most 2.50 log10 throughout. The “CPE (cytopathic/cytotoxic effect), four replicate wells” value is recorded as 0000 in series [2] (5 minutes exposure, dilution (−Log10) −3); 0000 in series [2] (5 minutes exposure, dilution (−Log10) −4); 0000 in series [2] (5 minutes exposure, dilution (−Log10) −5); 0000 in series [2] (5 minutes exposure, dilution (−Log10) −6); 0000 in series [2] (5 minutes exposure, dilution (−Log10) −7); 0000 in series [2] (10 minutes exposure, dilution (−Log10) −3). Besides, the “CPE (cytopathic/cytotoxic effect), four replicate wells” value in series [2] (10 minutes exposure, dilution (−Log10) −4) was 0000; in series [2] (10 minutes exposure, dilution (−Log10) −5) it was 0000; in series [2] (10 minutes exposure, dilution (−Log10) −6) it was 0000; in series [2] (10 minutes exposure, dilution (−Log10) −7), 0000. Further, the “other adverse events reported in the study” value in series [3] was “no other adverse events”. Moreover, the sensitization response entry in series [3] is “did not create any sensitization response”. Also, in series [3], the “subjects showing any skin reactions in the first 3 visits (7-days)” value was “None”. For the same molecule, in series [3], the “subjects that did not display any irritation throughout the entire 21-day study” value is on record as 43 subjects. In addition, the “subjects that experienced some skin irritation” value in series [3] is recorded as 8 subjects.
